In patent publication US20160355782A1, “METHOD FOR ENHANCING DIFFERENTIATION OF DOPAMINERGIC NEURONS” (Buddhist Tzu Chi Medical Foundation, priority 2015, published 2016):

Tests used:
[1] = test system: TH promoter in Nurr1-transfected cortical NPCs; assay: TH promoter assay (pAAV-Nurr1 and pTH6.0-GL3) in cortical NPCs; assay type: cell-based, rat; conditions: 24 hours
Text: The luciferase reporter vector pTH6.0-GL3 constructed by engineering the 6.0 kb upstream sequences of the rat TH (TH6.0) gene into pGL3 was kindly provided by Dr. Kwang-Soo Kim (Harvard Medical School, Belmont, Mass.). Vector expressing Nurr1 (mouse) was constructed by inserting the respective cDNA into pAAV-MCS vector (pAAV-Nurr1), in which the cloned gene is designed to be expressed under the control of the cytomegalovirus (CMV) immediate-early promoter. pTH6.0-GL3 alone or combined with pAAV-Nurr1 were transfected into a human neuro-blastoma SH-SY5Y cell line or cortical NPCs, respectively, using Lipofectamine 2000 (Invitrogen) according to the protocol of the manufacturer. For determine the effect of MeCP2-CoREST-HDAC1 repressor complex on TH promoter activity, the SH-SY5Y cells were double transfected with pTH6.0-GL3 and pCMV6-Entry-Mecp2 (Flag-tagged MeCP2)/or pCMV6-Entry-Rcor1 (Flag-tagged CoREST) (both from OriGene Technologies, Rockville, Md.)/or pK7-HDAC1-GFP (Addgene). […] Luciferase activity of cell lysates was determined luminometrically by the luciferase assay system (Promega, Madison, Wis.) as specified by the manufacturer. Luciferase activity was normalized to the protein content of the extracts. Relative luciferase activity was determined to reflect promoter activity of TH, expressed as the fold increase relative to the activity of control or untreated mock control.

[2] = test system: rat TH promoter; assay: Chromatin immuno-precipitation (ChIP) at the TH promoter in VM precursor cultures; assay type: cell-based
Description: VM precursor cultures were treated with 1 μM UCN for about 1 to 2 days. VM cells for ChIP from rat embryos, the pregnant rats on day 12.5 of gestation were intra-peritoneally injected with saline as control or 10 μg/kg UCN as treatment every 24 h for 3 days before sacrifice. The ventral mesencephalon from E15.5 embryos was dissected. Cells were cross-linked with 1% formaldehyde, and stored at −80° C. before use.
Chromatin immuno-precipitation (ChIP) assays were performed using SimpleChIP® Enzymatic Chromatin IP kit (Cell Signaling Technology, Beverly, Mass.) by the instruction of the kit. Briefly, cross-linked chromatin in the cells was enzymatic digested to generate fragments with a length of approximately 150-900 bp (1 to 5 nucleosomes). The chromatin was subjected to immuno-precipitation using the following antibodies: anti-Nurr1 (Santa Cruz), anti-acetyl histone H3 (Ac-H3), anti-HDAC1, anti-CoREST (all from Upstate Biotechnology), anti-MeCP2 (Chemicon,), anti-Foxa2 (Cell signaling Technology), anti-Pitx3, and IgG (both from Abcam). Immuno-precipitated DNA fragments were collected by protein G magnetic beads. DNA/protein complexes were eluted from the beads and reverse cross-linked at 65° C. for 2 h in the presence of proteinase K. Purified DNA were subjected to real-time PCR using primers specific to rat TH promoter loci (referring to Table 2). The abundance of the immuno-precipitated DNA in a sample was normalized to the amount of signal in the input DNA. The values of the control samples were set to 1.0.

[3] = test system: TH promoter in SH-SY5Y cells; assay: TH promoter assay (pTH6.0-GL3 luciferase) in SH-SY5Y cells; assay type: cell-based, human; conditions: 24 hours; for elicited TH promoter activity on forced MeCP2 or CoREST expression / elicited TH promoter activity on co-transfection with HDAC1: 1 μM UCN or 1.25 mM SB; for elicited TH promoter activity on co-transfection with HDAC1: pK7-HDAC1 co-transfection
Text: The luciferase reporter vector pTH6.0-GL3 constructed by engineering the 6.0 kb upstream sequences of the rat TH (TH6.0) gene into pGL3 was kindly provided by Dr. Kwang-Soo Kim (Harvard Medical School, Belmont, Mass.). Vector expressing Nurr1 (mouse) was constructed by inserting the respective cDNA into pAAV-MCS vector (pAAV-Nurr1), in which the cloned gene is designed to be expressed under the control of the cytomegalovirus (CMV) immediate-early promoter. pTH6.0-GL3 alone or combined with pAAV-Nurr1 were transfected into a human neuro-blastoma SH-SY5Y cell line or cortical NPCs, respectively, using Lipofectamine 2000 (Invitrogen) according to the protocol of the manufacturer. For determine the effect of MeCP2-CoREST-HDAC1 repressor complex on TH promoter activity, the SH-SY5Y cells were double transfected with pTH6.0-GL3 and pCMV6-Entry-Mecp2 (Flag-tagged MeCP2)/or pCMV6-Entry-Rcor1 (Flag-tagged CoREST) (both from OriGene Technologies, Rockville, Md.)/or pK7-HDAC1-GFP (Addgene). At 24 h after transfection, cells were treated with 1 μM UCN or 1.25 mM SB for another 24 h. Luciferase activity of cell lysates was determined luminometrically by the luciferase assay system (Promega, Madison, Wis.) as specified by the manufacturer. Luciferase activity was normalized to the protein content of the extracts. Relative luciferase activity was determined to reflect promoter activity of TH, expressed as the fold increase relative to the activity of control or untreated mock control.

[4] = SB, compared with the UCN effect

Compound | TH promoter activity ([1]; 0.5 mM SB) | Nurr1 recruitment at the TH promoter [2, 4] | histone acetylation at the TH promoter [2, 4] | elicited TH promoter activity on forced MeCP2 or CoREST expression [3] | TH promoter activity ([3]; 1.25 mM SB) | elicited TH promoter activity on co-transfection with HDAC1 [3] | TH promoter activity (relative luciferase activity) ([1]; 1 μM UCN) | Nurr1 protein occupancy at the TH promoter ([2]; 1 μM UCN, 2 days) | CoREST binding in the TH promoter regions ([2]; UCN) | Foxa2 occupancy at Nurr1 binding sites of TH promoter ([2]; UCN) | HDAC1 recruitment at the TH promoter ([2]; UCN) | histone H3 acetylation at TH promoter regions ([2]; UCN) | MeCP2 recruitment to the TH promoter ([2]; UCN, Nurr1-binding sites and repeated CpGs) | TH promoter activity (relative luciferase activity) ([3]; 1 μM UCN)
CCCC(=O)[O-].[Na+] [SB, sodium butyrate, reference compound] | increase TH promoter activity | mimicked | mimicked | attenuation | increase TH promoter activity | significantly attenuated | – | – | – | – | – | – | – | –
Urocortin [UCN] | – | – | – | attenuation | – | significantly attenuated | activation of the TH promoter | significantly increased | decreased CoREST binding | increases | significantly reduced | significantly increased | significantly reduced | activation of the TH promoter
